# The source made the active and inactive calls. The calls are words filed in the database; no cut-off is given here.
# Legend:
# [1] = target: T1, Farnesyl pyrophosphate synthase (Rattus norvegicus) (UniProt P05369); assay: Inhibition of rat FPPS expressed in Escherichia coli BL21 (DE3) using GPP and IPP as substrate at 10 uM incubated for 10 mins by microplate reader
# T1 sequence (whole entry): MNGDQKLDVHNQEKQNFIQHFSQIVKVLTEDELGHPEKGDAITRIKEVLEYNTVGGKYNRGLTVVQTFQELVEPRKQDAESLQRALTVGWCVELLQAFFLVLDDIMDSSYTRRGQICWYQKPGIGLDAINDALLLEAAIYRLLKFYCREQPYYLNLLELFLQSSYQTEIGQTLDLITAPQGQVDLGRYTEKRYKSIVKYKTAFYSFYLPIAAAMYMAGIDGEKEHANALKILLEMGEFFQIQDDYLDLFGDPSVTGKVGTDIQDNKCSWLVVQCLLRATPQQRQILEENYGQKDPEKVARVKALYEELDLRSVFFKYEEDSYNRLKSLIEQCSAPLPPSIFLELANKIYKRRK
# [2] = target: T2, Farnesyl pyrophosphate synthase (Rattus norvegicus, UniProt P05369); assay: Binding affinity to rat FPPS expressed in Escherichia coli BL21 (DE3) by isothermal titration calorimetry
# T2 sequence (P05369 whole entry): T1 sequence (whole entry)
# LoVo [3] = assay: Growth inhibition of human LoVo cells at 100 uM incubated for 48 hrs by MTT assay relative to control; format: functional; conditions: read-out: GI
# [4] = Reduction in Ras protein expression in FPPS-positive human LoVo cells assessed as mean fluorescence intensity upto 75 uM measured after 48 hrs by Western blot analysis relative to untreated control; format: functional; conditions: dose microM <=75
# HCT-116 [5] = assay: Induction of apoptosis in human HCT116 cells assessed as late apoptotic cells at 50 uM after 48 hrs by Annexin V/FITC staining based flow cytometric analysis (reference value: 5.63%); format: functional
# LoVo [6] = assay: Induction of apoptosis in human Lovo cells assessed as necrotic cells at 25 uM after 48 hrs by Annexin V/FITC staining based flow cytometric analysis (reference value: 0.321%); format: functional
# LoVo [7] = assay: Induction of ROS generation in human Lovo cells assessed as intracellular ROS level at 25 uM by DCFH-DA staining-based flow cytometric analysis (reference value: 9.18%); format: functional
# LoVo [8] = assay: Induction of apoptosis in human Lovo cells assessed as early apoptotic cells at 75 uM after 48 hrs by Annexin V/FITC staining based flow cytometric analysis (reference value: 6.76%); format: functional
# LoVo [9] = assay: Induction of apoptosis in human Lovo cells assessed as late apoptotic cells at 25 uM after 48 hrs by Annexin V/FITC staining based flow cytometric analysis (reference value: 1.84%); format: functional
# [10] = Reduction in Ras protein expression in FPPS-positive human HCT116 cells assessed as mean fluorescence intensity upto 75 uM measured after 48 hrs by Western blot analysis relative to untreated control; format: functional, HCT-116; conditions: dose microM <=75
# LoVo [11] = assay: Induction of apoptosis in human Lovo cells assessed as necrotic cells at 50 uM after 48 hrs by Annexin V/FITC staining based flow cytometric analysis (reference value: 0.321%); format: functional
# LoVo [12] = assay: Cytotoxicity against FPPS-positive human Lovo cells assessed as cell viability in presence of GGOH measured after 48 hrs by MTT assay; format: functional, cell-based
# HCT-116 [13] = assay: Induction of apoptosis in human HCT116 cells assessed as late apoptotic cells at 75 uM after 48 hrs by Annexin V/FITC staining based flow cytometric analysis (reference value: 5.63%); format: functional
# HCT-116 [14] = assay: Growth inhibition of human HCT116 cells at 100 uM incubated for 48 hrs by MTT assay relative to control; format: functional; conditions: read-out: GI
# LoVo [15] = assay: Reduction in Ras protein expression in FPPS-positive human LoVo cells upto 75 uM measured after 48 hrs by Western blot analysis; format: functional; conditions: dose microM <=75, time 48.0 hrs
# HCT-116 [16] = assay: Induction of apoptosis in human HCT116 cells assessed as early apoptotic cells at 50 uM after 48 hrs by Annexin V/FITC staining based flow cytometric analysis (reference value: 1.26%); format: functional
# HCT-116 [17] = assay: Induction of apoptosis in human HCT116 cells assessed as early apoptotic cells at 75 uM after 48 hrs by Annexin V/FITC staining based flow cytometric analysis (reference value: 1.26%); format: functional
# HCT-116 [18] = assay: Cytotoxicity against FPPS-positive human HCT116 cells assessed as cell viability at 100 uM in presence of GGOH measured after 48 hrs by MTT assay; format: functional; conditions: read-out: Activity
# HCT-116 [19] = assay: Induction of apoptosis in human HCT116 cells assessed as viable cells at 25 uM after 48 hrs by Annexin V/FITC staining based flow cytometric analysis (reference value: 92%); format: functional; conditions: read-out: Activity
# HCT-116 [20] = assay: Reduction in Ras protein expression in FPPS-positive human HCT116 cells upto 75 uM measured after 48 hrs by Western blot analysis; format: functional, cell-based; conditions: dose microM <=75, time 48.0 hrs
# LoVo [21] = assay: Induction of apoptosis in human Lovo cells assessed as late apoptotic cells at 75 uM after 48 hrs by Annexin V/FITC staining based flow cytometric analysis (reference value: 1.84%); format: functional
# HCT-116 [22] = assay: Cytotoxicity against FPPS-positive human HCT116 cells assessed as cell viability in presence of FOH measured after 48 hrs by MTT assay; format: functional, cell-based; conditions: HCT-116, 48 h
# LoVo [23] = assay: Cytotoxicity against FPPS-positive human Lovo cells assessed as cell viability at 100 uM in presence of FOH measured after 48 hrs by MTT assay; format: functional; conditions: read-out: Activity
# LoVo [24] = assay: Induction of ROS generation in human Lovo cells assessed as intracellular ROS level at 75 uM by DCFH-DA staining-based flow cytometric analysis (reference value: 9.18%); format: functional
# HCT-116 [25] = assay: Induction of apoptosis in human HCT116 cells assessed as viable cells at 75 uM after 48 hrs by Annexin V/FITC staining based flow cytometric analysis (reference value: 92%); format: functional; conditions: read-out: Activity
# HCT-116 [26] = assay: Induction of apoptosis in human HCT116 cells assessed as necrotic cells at 50 uM after 48 hrs by Annexin V/FITC staining based flow cytometric analysis (reference value: 1.12%); format: functional
# HCT-116 [27] = assay: Induction of ROS generation in human HCT116 cells assessed as intracellular ROS level at 25 uM by DCFH-DA staining-based flow cytometric analysis (reference value: 8.91%); format: functional
# LoVo [28] = assay: Induction of apoptosis in human Lovo cells assessed as early apoptotic cells at 25 uM after 48 hrs by Annexin V/FITC staining based flow cytometric analysis (reference value: 6.76%); format: functional
# MDA-MB-468 = assay: Growth inhibition of human MDA-MB-468 cells at 100 uM incubated for 48 hrs by MTT assay relative to control; conditions: MDA-MB-468, 48 h, read-out: GI
# LoVo [29] = assay: Induction of apoptosis in human Lovo cells assessed as necrotic cells at 75 uM after 48 hrs by Annexin V/FITC staining based flow cytometric analysis (reference value: 0.321%); format: functional
# LoVo [30] = assay: Induction of apoptosis in human Lovo cells assessed as viable cells at 75 uM after 48 hrs by Annexin V/FITC staining based flow cytometric analysis (reference value: 91.1%); format: functional; conditions: read-out: Activity
# HCT-116 [31] = assay: Induction of ROS generation in human HCT116 cells assessed as intracellular ROS level at 50 uM by DCFH-DA staining-based flow cytometric analysis (reference value: 8.91%); format: functional
# LoVo [32] = assay: Induction of apoptosis in human Lovo cells assessed as viable cells at 25 uM after 48 hrs by Annexin V/FITC staining based flow cytometric analysis (reference value: 91.1%); format: functional; conditions: read-out: Activity
# HCT-116 [33] = assay: Induction of apoptosis in human HCT116 cells assessed as necrotic cells at 75 uM after 48 hrs by Annexin V/FITC staining based flow cytometric analysis (reference value: 1.12%); format: functional
# LoVo [34] = assay: Cytotoxicity against FPPS-positive human Lovo cells assessed as cell viability in presence of FOH measured after 48 hrs by MTT assay; format: functional, cell-based
# HCT-116 [35] = assay: Induction of apoptosis in human HCT116 cells assessed as viable cells at 50 uM after 48 hrs by Annexin V/FITC staining based flow cytometric analysis (reference value: 92%); format: functional; conditions: read-out: Activity
# LoVo [36] = assay: Cytotoxicity against FPPS-positive human Lovo cells assessed as reduction in cell viability measured after 48 hrs by MTT assay
# LoVo [37] = assay: Induction of ROS generation in human Lovo cells assessed as intracellular ROS level at […] 50 by DCFH-DA staining-based flow cytometric analysis (reference value: 9.18%); format: functional; conditions: dose 50 µM
# LoVo [38] = assay: Induction of apoptosis in human Lovo cells assessed as early apoptotic cells at 50 uM after 48 hrs by Annexin V/FITC staining based flow cytometric analysis (reference value: 6.76%); format: functional
# HCT-116 [39] = assay: Induction of apoptosis in human HCT116 cells assessed as early apoptotic cells at 25 uM after 48 hrs by Annexin V/FITC staining based flow cytometric analysis (reference value: 1.26%); format: functional
# HCT-116 [40] = assay: Cytotoxicity against FPPS-positive human HCT116 cells assessed as reduction in cell viability measured after 48 hrs by MTT assay; conditions: HCT-116, 48 h
# HCT-116 [41] = assay: Induction of apoptosis in human HCT116 cells assessed as necrotic cells at 25 uM after 48 hrs by Annexin V/FITC staining based flow cytometric analysis (reference value: 1.12%); format: functional
# HCT-116 [42] = assay: Cytotoxicity against FPPS-positive human HCT116 cells assessed as cell viability at 100 uM in presence of FOH measured after 48 hrs by MTT assay; format: functional; conditions: read-out: Activity
# HCT-116 [43] = assay: Induction of apoptosis in human HCT116 cells assessed as late apoptotic cells at 25 uM after 48 hrs by Annexin V/FITC staining based flow cytometric analysis (reference value: 5.63%); format: functional
# LoVo [44] = assay: Cytotoxicity against FPPS-positive human Lovo cells assessed as cell viability at 100 uM in presence of GGOH measured after 48 hrs by MTT assay; format: functional; conditions: read-out: Activity
# HCT-116 [45] = assay: Cytotoxicity against FPPS-positive human HCT116 cells assessed as cell viability in presence of GGOH measured after 48 hrs by MTT assay; format: functional, cell-based; conditions: HCT-116, 48 h
# LoVo [46] = assay: Induction of apoptosis in human Lovo cells assessed as late apoptotic cells at 50 uM after 48 hrs by Annexin V/FITC staining based flow cytometric analysis (reference value: 1.84%); format: functional
# LoVo [47] = assay: Induction of apoptosis in human Lovo cells assessed as viable cells at 50 uM after 48 hrs by Annexin V/FITC staining based flow cytometric analysis (reference value: 91.1%); format: functional; conditions: read-out: Activity
# MDA-MB-231 = assay: Cytotoxicity against FPPS-negative human MDA-MB-231 cells assessed as reduction in cell viability measured after 48 hrs by MTT assay; format: functional, cell-based; conditions: MDA-MB-231, 48 h
# HCT-116 [48] = assay: Induction of ROS generation in human HCT116 cells assessed as intracellular ROS level at 75 uM by DCFH-DA staining-based flow cytometric analysis (reference value: 8.91%); format: functional
smiles,measurement,setting,value
O=C(CC1(O)C(=O)Nc2ccccc21)CC1(O)C(=O)Nc2ccccc21 (configuration not stated),inhibition,[1],13%
same,Kd,[2],181 µM
COc1ccccc1CN(CCS(=O)(=O)N1CCNCC1)S(=O)(=O)c1ccc(C)cc1,inhibition of growth at 100 µM,LoVo [3],80%
same,fold change (FC),[4],8.13
same,Activity,HCT-116 [5],14.6%
same,Activity,LoVo [6],2.04%
same,Activity,LoVo [7],19.6%
same,Activity,LoVo [8],32.7%
same,Activity,LoVo [9],4.29%
same,fold change (FC),[10],6.82
same,Activity,LoVo [11],1.84%
same,IC50,LoVo [12],51 µM
same,Activity,HCT-116 [13],20.4%
same,inhibition of growth at 100 µM,HCT-116 [14],80%
same,inhibition,LoVo [15],Active
same,Activity,HCT-116 [16],16.6%
same,Activity,HCT-116 [17],25.8%
same,viability at 100 µM,HCT-116 [18],27.9%
same,viability at 25 µM,HCT-116 [19],80.9%
same,inhibition,HCT-116 [20],Active
same,Activity,LoVo [21],26.5%
same,IC50,HCT-116 [22],81.1 µM
same,viability at 100 µM,LoVo [23],19%
same,inhibition,[1],24%
same,Activity,LoVo [24],74.6%
same,viability at 75 µM,HCT-116 [25],49.9%
same,Activity,HCT-116 [26],1.28%
same,Activity,HCT-116 [27],18.7%
same,Activity,LoVo [28],17.8%
same,inhibition of growth at 100 µM,MDA-MB-468,80%
same,Activity,LoVo [29],2.71%
same,viability at 75 µM,LoVo [30],38.1%
same,Activity,HCT-116 [31],30.9%
same,viability at 25 µM,LoVo [32],75.9%
same,Activity,HCT-116 [33],3.86%
same,IC50,LoVo [34],55.6 µM
same,viability at 50 µM,HCT-116 [35],67.5%
same,IC50,LoVo [36],43.6 µM
same,Activity,LoVo [37],48%
same,Activity,LoVo [38],24.6%
same,Activity,HCT-116 [39],11.99%
same,IC50,HCT-116 [40],51.8 µM
same,Activity,HCT-116 [41],1.98%
same,viability at 100 µM,HCT-116 [42],28.5%
same,Activity,HCT-116 [43],5.2%
same,Kd,[2],14.3 µM
same,viability at 100 µM,LoVo [44],14.8%
same,IC50,HCT-116 [45],73.9 µM
same,Activity,LoVo [46],21.2%
same,viability at 50 µM,LoVo [47],52.3%
same,IC50,MDA-MB-231,> 100 µM
same,Activity,HCT-116 [48],60.8%
